Assay results published in patent US4473577A, “2-Thiazolamine derivatives, process for preparing same, and pharmaceutical compositions comprising same” (Mitsui Toatsu Chemicals, Incorporated, priority 1982, dated 1984).
Structures can show the parent of a compound that is named as a salt. Where two headings read alike, the source gives them in different places.

Key:
[1] = tested on: adjuvant arthritis induced in rats by injection of a tubercle bacillus adjuvant; type: in vivo, male rats of the SD strain
[2] = Test for acute oral toxicity; set-up: species or system male mice of the ddY strain; conditions: mouse, in vivo, male ddY mice, 7 days observation, estimated
Description: Each of the three compounds used in Evaluation Tests 1 and 2 was dissolved or suspended in physiological saline and administered orally to a group of 5 male mice of the ddY strain. The LD50 value of the compound was estimated by observing these animals for 7 days after administration.

[3] = tested on: delayed hypersensitivity induced in mice by picryl chloride; assay: Augmentation test of delayed hypersensitivity (picryl chloride, ear thickness); type: in vivo, male mice of the ICR strain; conditions: mouse ICR, 50 mg per kg orally, simultaneously with sensitization; ear thickness before and 24 hours after challenge (7 days after sensitization); average of 16 measurements; * = P<0.05 vs control
Text: L., and Ptak, W. "Contact and delayed hypersensitivity in the mouse I. Active sensitization and passive transfer," Immunology, 15, 405-416(1968)). In the following Evaluation Test 1, this experimental system was used to carry out an augmentation test of delayed hypersensitivity. Male mice of the ICR strain, weighing approximately 30 g, were used in groups of eight. These animals were sensitized by shaving the hair on the abdomen and applying thereto a 3% solution of picryl chloride in a 4:1 mixture of olive oil and acetone. Simultaneously with this sensitization, each of three compounds of the present invention was dissolved or suspended in physiological saline containing 0.2% carboxymethyl cellulose and administered orally to the animals in a dose of 50 mg per kg of body weight. A control group was treated solely with physiological saline containing 0.2% carboxymethyl cellulose. Seven days after sensitization, the animals were challenged by wrapping the tips of a forceps with pieces of felt, impregnating the felt with olive oil containing 1% picryl chloride, and pinching both ears of each animal. The thicknesses of the ears were measured before and 24 hours after the challenge, and the calculated present increase of ear thickness (the average of 16 measurements made of the ears of 8 animals) is shown in Table 1. […] The test results thus obtained were subjected to statistical analysis using the F.t test. The values marked with an asterisk (*) indicate that, when they were compared with the value of the control, the differences were significant at P<0.05.

[4] = rat SD, 5 mg per kg subcutaneously, nine times before and after adjuvant, left hind paw volume, * = P<0.05 vs control

| SMILES | Percent inhibition of swelling as compared with control group (average of 16-20 days) ([1]; rat, in vivo, sc) | LD50 at 168 h [2] | Percent increase of ear thickness [3] | Percent inhibition of swelling as compared with control group (average of 16-20 days) [1, 4] |
| --- | --- | --- | --- | --- |
| c1ccc([C@H]2CN3CCSC3=N2)cc1 [Levamisole hydrochloride, reference compound] | 19.8% | 200 to 300 mg/kg | 31.2% | – |
| CCC(=O)Nc1nc(/C(=N/OC)C(=O)OC)cs1 [drawing 13] | – | – | – | 22.3% |
| CO/N=C(\C(=O)OC)c1csc(NC(=O)OCC(Cl)(Cl)Cl)n1 [drawing 11] | – | – | – | 39.5% |
| CCC(=O)Nc1nc(/C(=N/OC)C(=O)OC)cs1 [drawing 10] | – | – | 35.2% | – |
| CO/N=C(\C(=O)OC)c1csc(NC(=O)OCC(Cl)(Cl)Cl)n1 [drawing 8] | – | – | 33.4% | – |
